In PubChem BioAssay AID276 (DTP/NCI, 2004):
Where “and” joins values, the source holds several entries; their conditions need not be identical. Equal entries are not always repeated. Toxic doses and inconclusive results are not listed. How the source made its calls: active means survival T/C of 150% or more; inactive means T/C below 125% in these data.

System: B6C3F1 mice, Lewis lung carcinoma iv, survival T/C
Test: NCI In Vivo Anticancer Drug Screen. Data for tumor model Lewis Lung Carcinoma (intravenous) in B6C3F1 mice
Details: endpoint: median survival time, schedule: Q01DX009 (ip), higher = longer survival
Description: The antitumor activity of compounds was measured in mice bearing transplantable tumors. Survival or tumor size were measured and the results are expressed as the measurement made in the treated group (T) divided by the measurement made in the vehicle treated control group (C). The tumor model used in this assay is Lewis Lung Carcinoma (intravenous) in B6C3F1 mice

[1] = dose: 12.5 mg/kg/injection, vehicle: saline with Tween-80
[2] = dose: 25.0 mg/kg/injection, vehicle: saline with Tween-80
[3] = dose: 50.0 mg/kg/injection, vehicle: saline with Tween-80
[4] = dose: 100.0 mg/kg/injection, vehicle: saline with Tween-80
[5] = dose: 50.0 mg/kg/injection, vehicle: Klucel (hydroxypropylcellulose) (HPC)
[6] = dose: 100.0 mg/kg/injection, vehicle: Klucel (hydroxypropylcellulose) (HPC)
[7] = dose: 400.0 mg/kg/injection, vehicle: Klucel (hydroxypropylcellulose) (HPC)
[8] = dose: 25.0 mg/kg/injection, vehicle: saline
[9] = dose: 50.0 mg/kg/injection, vehicle: saline
[10] = dose: 1.56 mg/kg/injection, vehicle: saline
[11] = dose: 3.12 mg/kg/injection, vehicle: saline
[12] = dose: 6.25 mg/kg/injection, vehicle: saline
[13] = dose: 12.5 mg/kg/injection, vehicle: saline
[14] = dose: 12.5 mg/kg/injection, vehicle: Klucel (hydroxypropylcellulose) (HPC)
[15] = dose: 25.0 mg/kg/injection, vehicle: Klucel (hydroxypropylcellulose) (HPC)
[16] = dose: 200.0 mg/kg/injection, vehicle: Klucel (hydroxypropylcellulose) (HPC)

Measured: T/C

CNC(=O)OCc1c(COC(=O)NC)c(-c2ccc(Cl)c(Cl)c2)n2c1Cc1ccccc1C2
inactive: dose: 12.5 mg/kg/injection, vehicle: distilled water + Tween-80 102 % of control | dose: 25.0 mg/kg/injection, vehicle: distilled water + Tween-80 114 % of control | dose: 50.0 mg/kg/injection, vehicle: distilled water + Tween-80 101 % of control and 105 % of control

CC(=O)OCC1OC([S-])C(OC(C)=O)C(OC(C)=O)C1OC(C)=O.CC[PH+](CC)CC.CC[PH+](CC)CC.[Au].[Au] (stereo not drawn)
inactive: dose: 0.62 mg/kg/injection, vehicle: Klucel (hydroxypropylcellulose) (HPC) 91 % of control and 104 % of control | dose: 1.25 mg/kg/injection, vehicle: Klucel (hydroxypropylcellulose) (HPC) 98 % of control and 106 % of control | dose: 2.5 mg/kg/injection, vehicle: Klucel (hydroxypropylcellulose) (HPC) 100 % of control and 109 % of control | dose: 5.0 mg/kg/injection, vehicle: Klucel (hydroxypropylcellulose) (HPC) 101 % of control | dose: 10.0 mg/kg/injection, vehicle: Klucel (hydroxypropylcellulose) (HPC) 102 % of control and 104 % of control

N#CCCSC(=S)C1CCCC1=N (stereo not drawn)
inactive: [1] 99 % of control | [2] 103 % of control | [3] 98 % of control | [4] 103 % of control | dose: 200.0 mg/kg/injection, vehicle: saline with Tween-80 105 % of control | dose: 400.0 mg/kg/injection, vehicle: saline with Tween-80 106 % of control

C#C[C@]1(O)CC[C@H]2[C@@H]3CCc4cc(O)ccc4[C@H]3CC[C@@]21C
inactive: [5] 118 % of control and 122 % of control | [6] 113 % of control and 114 % of control | [7] 107 % of control

CN(C)CCN1C(=O)c2cccc3cc([N+](=O)[O-])cc(c23)C1=O
inactive: dose: 0.75 mg/kg/injection, vehicle: saline with Tween-80 94 % of control | dose: 1.5 mg/kg/injection, vehicle: saline with Tween-80 93 % of control | dose: 3.0 mg/kg/injection, vehicle: saline with Tween-80 101 % of control | dose: 6.0 mg/kg/injection, vehicle: saline with Tween-80 95 % of control

CCCCn1cnc2c(=S)nc[nH]c21
inactive: [8] 112 % of control | [9] 110 % of control

Cc1cc(=O)n2c3c(c4c(cc13)c(CN(C)C)cc(=O)n4C)OC2
inactive: dose: 6.25 mg/kg/injection, vehicle: saline with Tween-80 106 % of control | [1] 105 % of control | [2] 109 % of control | [3] 123 % of control

NC(=O)CCC(N)C(=O)O (stereo not drawn)
inactive: dose: 25.0 mg/kg/injection, vehicle: suspension in saline 109 % of control | dose: 50.0 mg/kg/injection, vehicle: suspension in saline 111 % of control | dose: 100.0 mg/kg/injection, vehicle: suspension in saline 107 % of control | dose: 200.0 mg/kg/injection, vehicle: suspension in saline 102 % of control | dose: 400.0 mg/kg/injection, vehicle: suspension in saline 94 % of control

COC(=O)Nc1nc2ccc(C3(c4ccc(F)cc4)OCCO3)cc2[nH]1
inactive: [10] 97 % of control | [11] 106 % of control | [12] 102 % of control | [13] 104 % of control | [8] 117 % of control

Nc1nc(N)c2cc(S(=O)(=O)c3ccccc3)ccc2n1
inactive: [2] 98 % of control | [3] 98 % of control | [4] 99 % of control

COc1cc(Cc2nccc3cc(OC)c(OC)cc23)c(C(C)=O)cc1OC
inactive: [14] 98 % of control | [15] 120 % of control | [5] 106 % of control | [6] 101 % of control

CC1=C(O)C(=O)[C@@H]2O[C@@H]2C1=O
inactive: dose: 0.78 mg/kg/injection, vehicle: saline 94 % of control and 107 % of control | [10] 89 % of control and 103 % of control | [11] 92 % of control and 104 % of control | [12] 95 % of control and 104 % of control | [13] 100 % of control and 101 % of control

CN(C)c1ccc2c(SCC(=O)OCC(=O)[C@@]3(O)CC[C@H]4[C@@H]5CCC6=CC(=O)C=C[C@]6(C)[C@H]5C(=O)C[C@@]43C)c3ccc(N(C)C)cc3nc2c1
inactive: [16] 94 % of control | [7] 99 % of control | dose: 800.0 mg/kg/injection, vehicle: Klucel (hydroxypropylcellulose) (HPC) 101 % of control

O=C(O)C1CC(c2ccccc2)=NN1c1ccccc1 (stereo not drawn)
inactive: dose: 12.5 mg/kg/injection, vehicle: water 102 % of control | dose: 25.0 mg/kg/injection, vehicle: water 97 % of control | dose: 50.0 mg/kg/injection, vehicle: water 102 % of control | dose: 100.0 mg/kg/injection, vehicle: water 112 % of control | dose: 200.0 mg/kg/injection, vehicle: water 106 % of control

COC(=O)[C@@H]1c2cc3c(c(O)c2[C@@H](OC)C[C@@]1(C)O)C(=O)c1c(O)cc2c(c1C3=O)OC1O[C@@]2(C)[C@H](O)[C@@H](N(C)C)[C@@H]1O
inactive: [10] 99 % of control | dose: 3.13 mg/kg/injection, vehicle: saline 112 % of control | [12] 101 % of control | [13] 97 % of control

CC(C)(C)C1CCCCC1
inactive: [14] 92 % of control | [15] 93 % of control | [5] 108 % of control | [6] 101 % of control | [16] 103 % of control | [7] 96 % of control

COC1=C(C)C(=O)C2=C(C1=O)C1C3CC4=C(C(=O)C(OC)=C(C)C4=O)C(CNC(=O)C(C)=O)N3C(C#N)C(C2)N1C (stereo not drawn)
inactive: dose: 0.12 mg/kg/injection, vehicle: Klucel (hydroxypropylcellulose) (HPC) 101 % of control | dose: 0.25 mg/kg/injection, vehicle: Klucel (hydroxypropylcellulose) (HPC) 108 % of control | dose: 0.5 mg/kg/injection, vehicle: Klucel (hydroxypropylcellulose) (HPC) 107 % of control | dose: 1.0 mg/kg/injection, vehicle: Klucel (hydroxypropylcellulose) (HPC) 113 % of control

COC1/C=C/C=C(/C)Cc2cc(O)c(Cl)c(c2)N(C)C(=O)CC(OC(=O)C(C)C)C2(C)OC2C(C)C2CC1(O)NC(=O)O2 (stereo not drawn)
inactive: dose: 0.06 mg/kg/injection, vehicle: saline + alcohol 101 % of control | dose: 0.12 mg/kg/injection, vehicle: saline + alcohol 96 % of control | dose: 0.25 mg/kg/injection, vehicle: saline + alcohol 100 % of control | dose: 0.5 mg/kg/injection, vehicle: saline + alcohol 100 % of control

O=NN(CCCl)C(=O)Oc1cc(Cl)c(Cl)cc1Cl
inactive: dose: 11.56 mg/kg/injection, vehicle: Klucel (hydroxypropylcellulose) (HPC) 105 % of control | dose: 23.13 mg/kg/injection, vehicle: Klucel (hydroxypropylcellulose) (HPC) 101 % of control | dose: 46.25 mg/kg/injection, vehicle: Klucel (hydroxypropylcellulose) (HPC) 122 % of control

O=c1ncccn1[C@@H]1O[C@H](CO)[C@H](O)C1O (stereo partly drawn)
inactive: [8] 92 % of control and 96 % of control | [9] 88 % of control and 101 % of control | dose: 100.0 mg/kg/injection, vehicle: saline 105 % of control | dose: 200.0 mg/kg/injection, vehicle: saline 108 % of control and 119 % of control | dose: 400.0 mg/kg/injection, vehicle: saline 97 % of control and 116 % of control
